Measured values published in ChEMBL document CHEMBL1147864, “Synthesis of new sugar derivatives from Stachys sieboldi Miq and antibacterial evaluation against Mycobacterium tuberculosis, Mycobacterium avium, and Staphylococcus aureus” (2007).
Values after ≈ are worked out from the molar mass of the structure shown.

Columns and labels:
Type in all cases: functional
Conditions in all cases: 336 h
[1] = test system: Mycobacterium tuberculosis; assay: Antibacterial activity against Mycobacterium tuberculosis H37Rv after 2 weeks by broth dilution method
[2] = test system: Staphylococcus aureus; assay: Antibacterial activity against Staphylococcus aureus after 2 weeks by broth dilution method
[3] = test system: Mycobacterium avium; assay: Antibacterial activity against Mycobacterium avium 724S after 2 weeks by broth dilution method
[4] = test system: Staphylococcus aureus; assay: Antibacterial activity against methicillin-resistant Staphylococcus aureus 873 after 2 weeks by broth dilution method
[5] = test system: Staphylococcus aureus; assay: Antibacterial activity against methicillin-resistant Staphylococcus aureus 906 after 2 weeks by broth dilution method
[6] = test system: Staphylococcus aureus; assay: Antibacterial activity against methicillin-resistant Staphylococcus aureus 908 after 2 weeks by broth dilution method
[7] = test system: Staphylococcus aureus; assay: Antibacterial activity against methicillin-resistant Staphylococcus aureus 910 after 2 weeks by broth dilution method
[8] = test system: Mycobacterium tuberculosis; assay: Antimycobacterial activity against Mycobacterium tuberculosis A-1-1 after 2 weeks by broth dilution method
[9] = test system: Mycobacterium tuberculosis; assay: Antimycobacterial activity against Mycobacterium tuberculosis A-1-2 after 2 weeks by broth dilution method
[10] = test system: Mycobacterium tuberculosis; assay: Antimycobacterial activity against Mycobacterium tuberculosis A-1-3 after 2 weeks by broth dilution method
[11] = test system: Mycobacterium tuberculosis; assay: Antimycobacterial activity against Mycobacterium tuberculosis A-2-5 after 2 weeks by broth dilution method
[12] = test system: Mycobacterium tuberculosis; assay: Antimycobacterial activity against Mycobacterium tuberculosis A-3-1 after 2 weeks by broth dilution method
[13] = test system: Mycobacterium tuberculosis; assay: Antimycobacterial activity against Mycobacterium tuberculosis A-3-2 after 2 weeks by broth dilution method
[14] = test system: Mycobacterium tuberculosis; assay: Antimycobacterial activity against Mycobacterium tuberculosis A-3-5 after 2 weeks by broth dilution method
[15] = test system: Mycobacterium tuberculosis; assay: Antimycobacterial activity against Mycobacterium tuberculosis A-3-6 after 2 weeks by broth dilution method
[16] = test system: Mycobacterium tuberculosis; assay: Antimycobacterial activity against Mycobacterium tuberculosis A-3-9 after 2 weeks by broth dilution method
[17] = test system: Mycobacterium tuberculosis; assay: Antimycobacterial activity against Mycobacterium tuberculosis A-3-11 after 2 weeks by broth dilution method
[18] = test system: Mycobacterium tuberculosis; assay: Antimycobacterial activity against Mycobacterium tuberculosis A-3-12 after 2 weeks by broth dilution method
[19] = test system: Mycobacterium tuberculosis; assay: Antimycobacterial activity against Mycobacterium tuberculosis A-3-15 after 2 weeks by broth dilution method
[20] = test system: Mycobacterium tuberculosis; assay: Antimycobacterial activity against Mycobacterium tuberculosis A-3-16 after 2 weeks by broth dilution method
[21] = test system: Mycobacterium tuberculosis; assay: Antimycobacterial activity against Mycobacterium tuberculosis A-3-17 after 2 weeks by broth dilution method
[22] = test system: Mycobacterium tuberculosis; assay: Antimycobacterial activity against Mycobacterium tuberculosis A-3-19 after 2 weeks by broth dilution method
[23] = test system: Mycobacterium tuberculosis; assay: Antimycobacterial activity against Mycobacterium tuberculosis A-3-20 after 2 weeks by broth dilution method
[24] = test system: Mycobacterium tuberculosis; assay: Antimycobacterial activity against Mycobacterium tuberculosis A-3-21 after 2 weeks by broth dilution method
[25] = test system: Mycobacterium tuberculosis; assay: Antimycobacterial activity against Mycobacterium tuberculosis A-3-22 after 2 weeks by broth dilution method

SMILES: OC[C@H](O)[C@@H](O)[C@H](O)[C@H](O)CO[C@H]1O[C@H](CO[C@H]2O[C@H](CO)[C@H](O)[C@H](O)[C@H]2O)[C@H](O)[C@H](O)[C@H]1O
- MIC [1]: > 800 µg/mL
- MIC [2]: > 800 µg/mL

SMILES: CCCCO[C@@H]1O[C@H](CO[C@H]2O[C@H](CO[C@H]3O[C@H](COC(C)=O)[C@H](OC(C)=O)[C@H](OC(C)=O)[C@H]3OC(C)=O)[C@H](OC(C)=O)[C@H](OC(C)=O)[C@H]2OC(C)=O)[C@@H](OC(C)=O)[C@H](OC(C)=O)[C@H]1OC(C)=O
- MIC [1]: > 800 µg/mL
- MIC [2]: > 800 µg/mL

SMILES: C=CCO[C@@H]1O[C@H](CO[C@H]2O[C@H](CO[C@H]3O[C@H](COC(C)=O)[C@H](OC(C)=O)[C@H](OC(C)=O)[C@H]3OC(C)=O)[C@H](OC(C)=O)[C@H](OC(C)=O)[C@H]2OC(C)=O)[C@@H](OC(C)=O)[C@H](OC(C)=O)[C@H]1OC(C)=O
- MIC [1]: 3.13 µg/mL (≈ 3.24 µM)
- MIC [3]: 3.13 µg/mL (≈ 3.24 µM)
- MIC [2]: 3.13 µg/mL (≈ 3.24 µM)
- MIC [4]: 3.77 µg/mL (≈ 3.91 µM)
- MIC [5]: 15.1 µg/mL (≈ 15.6 µM)
- MIC ([6]; read-out: MIC): 7.54 µg/mL (≈ 7.81 µM)
- MIC [7]: 15.1 µg/mL (≈ 15.6 µM)
- MIC [8]: 6.25 µg/mL (≈ 6.48 µM)
- MIC [9]: 6.25 µg/mL (≈ 6.48 µM)
- MIC [10]: 6.25 µg/mL (≈ 6.48 µM)
- MIC [11]: 12.5 µg/mL (≈ 13 µM)
- MIC [12]: 25 µg/mL (≈ 25.9 µM)
- MIC [13]: 25 µg/mL (≈ 25.9 µM)
- MIC [14]: 6.25 µg/mL (≈ 6.48 µM)
- MIC [15]: 6.25 µg/mL (≈ 6.48 µM)
- MIC [16]: 3.13 µg/mL (≈ 3.24 µM)
- MIC [17]: 3.13 µg/mL (≈ 3.24 µM)
- MIC [18]: 6.25 µg/mL (≈ 6.48 µM)
- MIC [19]: 3.13 µg/mL (≈ 3.24 µM)
- MIC [20]: 6.25 µg/mL (≈ 6.48 µM)
- MIC [21]: 3.13 µg/mL (≈ 3.24 µM)
- MIC [22]: 3.13 µg/mL (≈ 3.24 µM)
- MIC [23]: 6.25 µg/mL (≈ 6.48 µM)
- MIC [24]: 6.25 µg/mL (≈ 6.48 µM)
- MIC [25]: 3.13 µg/mL (≈ 3.24 µM)

SMILES: CO[C@@H]1O[C@H](CO[C@H]2O[C@H](CO[C@H]3O[C@H](COC(C)=O)[C@H](OC(C)=O)[C@H](OC(C)=O)[C@H]3OC(C)=O)[C@H](OC(C)=O)[C@H](OC(C)=O)[C@H]2OC(C)=O)[C@@H](OC(C)=O)[C@H](OC(C)=O)[C@H]1OC(C)=O
- MIC [1]: > 800 µg/mL
- MIC [2]: > 800 µg/mL

SMILES: C#CCO[C@@H]1O[C@H](CO[C@H]2O[C@H](CO[C@H]3O[C@H](COC(C)=O)[C@H](OC(C)=O)[C@H](OC(C)=O)[C@H]3OC(C)=O)[C@H](OC(C)=O)[C@H](OC(C)=O)[C@H]2OC(C)=O)[C@@H](OC(C)=O)[C@H](OC(C)=O)[C@H]1OC(C)=O
- MIC [1]: > 800 µg/mL
- MIC [2]: > 800 µg/mL

SMILES: C/C=C/CO[C@@H]1O[C@H](CO[C@H]2O[C@H](CO[C@H]3O[C@H](COC(C)=O)[C@H](OC(C)=O)[C@H](OC(C)=O)[C@H]3OC(C)=O)[C@H](OC(C)=O)[C@H](OC(C)=O)[C@H]2OC(C)=O)[C@@H](OC(C)=O)[C@H](OC(C)=O)[C@H]1OC(C)=O
- MIC [1]: > 400 µg/mL
- MIC [2]: > 400 µg/mL

SMILES: C=CCO[C@H]1O[C@H](CO[C@H]2O[C@H](CO[C@H]3O[C@H](COC(C)=O)[C@H](OC(C)=O)[C@H](OC(C)=O)[C@H]3OC(C)=O)[C@H](OC(C)=O)[C@H](OC(C)=O)[C@H]2OC(C)=O)[C@@H](OC(C)=O)[C@H](OC(C)=O)[C@H]1OC(C)=O
- MIC [1]: > 800 µg/mL
- MIC [2]: > 800 µg/mL

SMILES: CCO[C@@H]1O[C@H](CO[C@H]2O[C@H](CO[C@H]3O[C@H](COC(C)=O)[C@H](OC(C)=O)[C@H](OC(C)=O)[C@H]3OC(C)=O)[C@H](OC(C)=O)[C@H](OC(C)=O)[C@H]2OC(C)=O)[C@@H](OC(C)=O)[C@H](OC(C)=O)[C@H]1OC(C)=O
- MIC [1]: > 800 µg/mL
- MIC [2]: > 800 µg/mL

SMILES: CCCO[C@@H]1O[C@H](CO[C@H]2O[C@H](CO[C@H]3O[C@H](COC(C)=O)[C@H](OC(C)=O)[C@H](OC(C)=O)[C@H]3OC(C)=O)[C@H](OC(C)=O)[C@H](OC(C)=O)[C@H]2OC(C)=O)[C@@H](OC(C)=O)[C@H](OC(C)=O)[C@H]1OC(C)=O
- MIC [1]: > 800 µg/mL
- MIC [2]: > 800 µg/mL

SMILES: CC(=O)OC[C@H]1O[C@H](OC[C@H]2O[C@H](OC[C@H]3O[C@@H](OC(C)C)[C@H](OC(C)=O)[C@@H](OC(C)=O)[C@@H]3OC(C)=O)[C@H](OC(C)=O)[C@@H](OC(C)=O)[C@H]2OC(C)=O)[C@H](OC(C)=O)[C@@H](OC(C)=O)[C@H]1OC(C)=O
- MIC [1]: > 800 µg/mL
- MIC [2]: > 800 µg/mL

SMILES: C=CCO[C@@H]1O[C@H](CO[C@H]2O[C@H](CO[C@H]3O[C@H](CO)[C@H](O)[C@H](O)[C@H]3O)[C@H](O)[C@H](O)[C@H]2O)[C@@H](O)[C@H](O)[C@H]1O
- MIC [1]: > 100 µg/mL
- MIC [3]: > 100 µg/mL
- MIC [2]: > 100 µg/mL
- MIC [4]: 100 µg/mL (≈ 184 µM)
- MIC [5]: > 100 µg/mL
- MIC ([6]; read-out: MIC): > 100 µg/mL
- MIC [7]: > 100 µg/mL

SMILES: CC(=O)OC[C@H](OC(C)=O)[C@@H](OC(C)=O)[C@H](OC(C)=O)[C@@H](CO[C@H]1O[C@H](CO[C@H]2O[C@H](COC(C)=O)[C@H](OC(C)=O)[C@H](OC(C)=O)[C@H]2OC(C)=O)[C@H](OC(C)=O)[C@H](OC(C)=O)[C@H]1OC(C)=O)OC(C)=O
- MIC [1]: > 800 µg/mL
- MIC [2]: > 800 µg/mL

SMILES: CN[C@@H]1[C@H](O[C@H]2[C@H](O[C@H]3[C@H](O)[C@@H](O)[C@H](N=C(N)N)[C@@H](O)[C@@H]3N=C(N)N)O[C@@H](C)[C@]2(O)C=O)O[C@@H](CO)[C@H](O)[C@H]1O (stereo in doubt) [STREPTOMYCIN]
- MIC [1]: 0.2 µg/mL (≈ 0.344 µM)
- MIC [3]: 0.4 µg/mL (≈ 0.688 µM)
- MIC [2]: 100 µg/mL (≈ 172 µM)
- MIC [4]: > 100 µg/mL
- MIC [5]: 100 µg/mL (≈ 172 µM)

SMILES: C=CCO [ALLYL ALCOHOL]
- MIC [1]: > 400 µg/mL
- MIC [2]: > 400 µg/mL

SMILES: C=CCN=C=S [ALLYL ISOTHIOCYANATE]
- MIC [1]: > 800 µg/mL
- MIC [2]: > 800 µg/mL

SMILES: CC[C@@H](CO)NCCN[C@@H](CC)CO [ETHAMBUTOL]
- MIC [1]: 1.25 µg/mL (≈ 6.12 µM)
- MIC [3]: 3 µg/mL (≈ 14.7 µM)
- MIC [2]: > 100 µg/mL
- MIC [4]: > 100 µg/mL
- MIC [5]: > 100 µg/mL
- MIC ([6]; read-out: MIC): > 100 µg/mL
- MIC [7]: > 100 µg/mL

SMILES: NNC(=O)c1ccncc1 [ISONIAZID]
- MIC [1]: 0.075 µg/mL (≈ 0.547 µM)
- MIC [3]: 12.5 µg/mL (≈ 91.1 µM)
- MIC [2]: > 100 µg/mL
- MIC [4]: > 100 µg/mL
- MIC ([6]; read-out: MIC): > 100 µg/mL
- MIC [7]: > 100 µg/mL

SMILES: CO[C@H]1/C=C/O[C@@]2(C)Oc3c(C)c(O)c4c(O)c(c(/C=N/N5CCN(C)CC5)c(O)c4c3C2=O)NC(=O)/C(C)=C\C=C\[C@H](C)[C@H](O)[C@@H](C)[C@@H](O)[C@@H](C)[C@H](OC(C)=O)[C@@H]1C [RIFAMPIN]
- MIC [1]: > 0.008 µg/mL
- MIC [3]: 0.004 µg/mL (≈ 0.00486 µM)
- MIC [2]: 0.004 µg/mL (≈ 0.00486 µM)
- MIC [4]: 0.004 µg/mL (≈ 0.00486 µM)
- MIC [5]: 0.004 µg/mL (≈ 0.00486 µM)
- MIC [6]: 0.004 µg/mL (≈ 0.00486 µM)
- MIC [7]: 0.004 µg/mL (≈ 0.00486 µM)
